Source: PMC2254147, “Novel Triazine JPC-2067-B Inhibits Toxoplasma gondii In Vitro and In Vivo” (PLoS Neglected Tropical Diseases, 2008)
Converted amounts (≈) assume the structure as drawn. Read-outs that look alike come from different tables or passages of the source.

What was measured:
Pc DHFR = molecular target: T1, Pc DHFR (Pneumocystis carinii, UniProt P16184); assay: Spectrophotometric DHFR assay, Pneumocystis carinii DHFR; type: biochemical
T1 construct: made in house; host or cells: Escherichia coli
T1 sequence (P16184 1-206): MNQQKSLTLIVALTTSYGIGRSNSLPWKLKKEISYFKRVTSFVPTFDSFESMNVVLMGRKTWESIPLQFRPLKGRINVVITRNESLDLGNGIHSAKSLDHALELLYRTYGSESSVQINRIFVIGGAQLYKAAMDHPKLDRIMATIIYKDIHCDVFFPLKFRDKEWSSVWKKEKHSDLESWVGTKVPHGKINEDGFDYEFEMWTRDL
From the text: DHFR from Pneumocystis carinii was produced as the recombinant enzyme expressed in Escherichia coli. […] DHFR from T. gondii was isolated directly from RH strain T. gondii grown in culture on Chinese hamster ovary cells lacking DHFR (CHO/dhfr^-, American Type Culture Collection 3952 CL). Organisms were introduced into a confluent monolayer and harvested when the mammalian cells were lysed. The 100,000× g supernate was stored in liquid nitrogen.
The spectrophotometric assay for DHFR was optimized for temperature and concentration of substrate and cofactor for each enzyme. The standard assay contained Na phosphate buffer pH 7.4 (40.7 mM), 2-mercaptoethanol (8.9 mM), NADPH (0.117 mM), dihydrofolic acid (0.09 mM), KCL (150 mM), and sufficient enzyme to produce a change in OD340 of 0.035/minute at 37°C. The reaction was continuously recorded for 3 minutes. […] The low background activity in the absence of dihydrofolic acid was subtracted from all rates.
(§1) DHFR was assayed with several concentrations of inhibitor to produce rates ranging from 1 to 90% of the uninhibited rate. At least three concentrations were required for calculation; most curves contained five concentrations.

TgDHFR = molecular target: T2, TgDHFR (Toxoplasma gondii, UniProt Q07422); assay: biochemical; type: biochemical
T2 construct: DHFR from T. gondii was isolated directly from RH strain T. gondii grown in culture; endogenous in cells; host or cells: RH strain T. gondii grown on CHO/dhfr- cells
T2 sequence (Q07422 1-610): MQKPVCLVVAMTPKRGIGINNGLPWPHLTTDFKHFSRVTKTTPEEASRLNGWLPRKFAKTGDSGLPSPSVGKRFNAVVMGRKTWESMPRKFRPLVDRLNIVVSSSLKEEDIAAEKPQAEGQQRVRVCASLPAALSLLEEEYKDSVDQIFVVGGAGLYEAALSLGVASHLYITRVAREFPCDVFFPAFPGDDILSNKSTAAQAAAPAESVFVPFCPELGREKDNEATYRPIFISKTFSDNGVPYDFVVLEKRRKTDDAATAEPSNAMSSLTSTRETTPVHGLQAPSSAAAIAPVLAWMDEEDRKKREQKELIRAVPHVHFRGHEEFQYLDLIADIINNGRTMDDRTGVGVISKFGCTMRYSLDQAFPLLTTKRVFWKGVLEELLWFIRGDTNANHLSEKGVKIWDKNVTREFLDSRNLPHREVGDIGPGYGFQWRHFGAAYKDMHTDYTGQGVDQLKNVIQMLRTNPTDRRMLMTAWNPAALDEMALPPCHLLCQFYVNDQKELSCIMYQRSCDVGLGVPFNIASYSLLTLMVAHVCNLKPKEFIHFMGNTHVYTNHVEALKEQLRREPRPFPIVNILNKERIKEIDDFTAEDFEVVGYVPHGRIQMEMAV
Experimental: DHFR from Pneumocystis carinii was produced as the recombinant enzyme expressed in Escherichia coli. […] Organisms were introduced into a confluent monolayer and harvested when the mammalian cells were lysed. The 100,000× g supernate was stored in liquid nitrogen.
(§2) The spectrophotometric assay for DHFR was optimized for temperature and concentration of substrate and cofactor for each enzyme. […] The reaction was continuously recorded for 3 minutes. […] The low background activity in the absence of dihydrofolic acid was subtracted from all rates.
as §1

[1] = ref 4 (superscript at the row head, footnote not given); cited from earlier work
P. falciparum strains = settings: drug-sensitive and drug-resistant strains; ref [4]-[10]; cited from earlier work
[2] = tested on: tester strains TA97, TA98, TA100, TA102 and TA1535; assay: Ames Test with and without microsomal activation; settings: Tester Strains TA98, TA100, TA1535, TA1537 and TA1538
Rat liver DHFR = molecular target: T3, Rat liver DHFR (Rattus norvegicus, UniProt Q920D2); assay: Spectrophotometric DHFR assay, rat liver DHFR; type: biochemical; settings: for IC50: 37°C, (95% confidence limits); for Selectivity for pathogen DHFR (in words): rat liver DHFR versus Pc, Tg, Mav DHFR, Table 1
T3 construct: Rat liver DHFR was prepared from livers of female Sprague-Dawley rats; from tissue; host or cells: liver of female Sprague-Dawley rats
T3 sequence (Q920D2 1-187): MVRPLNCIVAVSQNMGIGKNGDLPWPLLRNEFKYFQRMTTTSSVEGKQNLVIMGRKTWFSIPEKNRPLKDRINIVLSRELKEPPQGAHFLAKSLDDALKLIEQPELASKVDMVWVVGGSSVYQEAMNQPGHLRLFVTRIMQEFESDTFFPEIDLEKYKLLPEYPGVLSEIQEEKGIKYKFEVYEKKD
Experimental: Rat liver DHFR was prepared from livers of female Sprague-Dawley rats. The 100,000× g supernate was partially purified by ammonium sulfate precipitation; the 50–90% precipitate was re-dissolved and stored in liquid nitrogen.
as §2, §1

P. falciparum = settings: ref [4]-[11]; cited from earlier work
Mav DHFR = molecular target: T4, Mav DHFR (Mycobacterium avium, UniProt O30463); assay: Spectrophotometric DHFR assay, Mycobacterium avium-intracellulare DHFR; type: biochemical; settings: 37°C; (95% confidence limits)
T4 construct: the bacteria were centrifuged, sonicated, and the 100,000 Xg supernate was stored under liquid nitrogen until assay; endogenous in cells; host or cells: M. avium-intracellulare clinical isolate (serovar 4), Indiana University School of Medicine
T4 sequence (O30463 1-181): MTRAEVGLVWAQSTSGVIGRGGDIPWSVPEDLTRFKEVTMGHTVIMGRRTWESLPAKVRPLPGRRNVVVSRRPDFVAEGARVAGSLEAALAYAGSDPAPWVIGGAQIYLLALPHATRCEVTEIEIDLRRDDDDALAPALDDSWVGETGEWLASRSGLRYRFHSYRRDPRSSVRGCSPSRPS
Experimental: Mycobacterium avium-intracellulare used in these studies was a clinical isolate (serovar 4) from Indiana University School of Medicine, Department of Pathology. The strain was maintained on Lowenstein-Jensen slants (Baxter Scientific) grown at room temperature. To produce enzyme, the organism was grown in Middlebrook 7H-9 liquid medium at 37°C to an OD660 of 0.5 to 0.7, which took several weeks. At harvest, the bacteria were centrifuged, sonicated, and the 100,000 Xg supernate was stored under liquid nitrogen until assay. These supernates contained both DHFR and dihydroopteroate synthetase activity.
The spectrophotometric assay for DHFR was optimized for temperature and concentration of substrate and cofactor for each enzyme. The standard assay contained Na phosphate buffer pH 7.4 (40.7 mM), 2-mercaptoethanol (8.9 mM), NADPH (0.117 mM), dihydrofolic acid (0.09 mM), KCL (150 mM), and sufficient enzyme to produce a change in OD340 of 0.035/minute at 37°C. The reaction was continuously recorded for 3 minutes. Activity under these conditions was linear with enzyme concentration over a 4-fold range. The low background activity in the absence of dihydrofolic acid was subtracted from all rates.
as §1

[3] = ref 4 (superscript at the row head, footnote not given); cited from earlier work; remark: listed apart in the source
[4] = Thompson Antimalarial Assay LD50; settings: mouse, in vivo; @ Day 6
[5] = 42-day toxicology study in Macaca fascicularis; type: in vivo
[6] = 42-day toxicology study in CD-1 mice; type: in vivo
Experimental: (§3) A 42-day toxicology study in CD-1 mice at doses up to 98 mg/kg evaluating well-being, weight gain, and histopathology was performed. […] 7.5 mg/kg was established as the NOAEL (No Observed Adverse Effect Level). JPC-2056 and JPC-2067 were assayed in the Ames Test with and without microsomal activation with tester strains TA97, TA98, TA100, TA102 and TA1535.

[7] = tested on: tester strains TA97, TA98, TA100, TA102 and TA1535; assay: Ames Test with and without microsomal activation
Experimental: as §3

[8] = 42-day study, doses up to 98 mg/kg

CC1(C)N=C(N)N=C(N)N1OCCCOc1cc(Cl)c(Cl)cc1Cl [JPC-208-B, 4,6-diamino-1,2-dihydro-2,2-dimethyl-1-[3′(2,4,5-trichlorophenoxy)propyloxy]-1,3,5-triazine]
IC50 (Pc DHFR; 37°C, (95% confidence limits), read-out: Pc DHFR IC50): 0.265 nM
IC50 (TgDHFR; 37°C, (95% confidence limits), read-out: Tg DHFR IC50): 0.602 nM
Oral LD50 Rat [1]: 1,980 mg/kg
ED50 in vitro against P. falciparum strains (P. falciparum strains): 0.05 ng/mL (≈ 0.127 nM)
Ames w/o Activation [2]: Not Active ^#
Ames with Activation [2]: Not Active ^#
IC50 (Rat liver DHFR): 0.81 nM
Selectivity for pathogen DHFR (in words) (Rat liver DHFR): not selective
Activity in vivo against P. falciparum, greater than that of pyrimethamine (P. falciparum): 2 logs
IC50 (Mav DHFR): 0.57 nM
Oral LD50 Mouse [3]: 3,510 mg/kg
LD50 at 6 day [4]: > 128 mg/kg

CCc1nc(N)nc(N)c1-c1ccc(Cl)cc1 [JPC-1090-A-1, Pyrimethamine]
IC50 (Pc DHFR): 6170 nM
IC50 (Rat liver DHFR): 1320 nM
IC50 (Mav DHFR): 1200 nM

CC1(C)N=C(N)N=C(N)N1c1ccc(Cl)cc1 [JPC-2013-B-1, cycloguanil]
IC50 (Pc DHFR): 8900 nM
IC50 (TgDHFR): 410 nM
IC50 (Rat liver DHFR): 1730 nM
Selectivity for pathogen DHFR (in words) (Rat liver DHFR): not significantly selective
IC50 (Mav DHFR): 12100 nM

CC(C)NC(=N)NC(=N)NOCCCOc1ccc(OC(F)(F)F)cc1Cl [JPC-2056, 1-(3′-(2-chloro-4-trifluoromethoxyphenyloxy)propyloxy)-5-isopropylbiguanide]
Toxicological findings, Cynomolgous Monkey ([5]; 15 mg/kg for 42 days): Intermittent Loose Stools/Diarrhea 15 mg/kg for 42 days
Findings in Macaca fascicularis at 15 mg/kg ([5]; 42-day study, 15 mg/kg, resolved upon drug withdrawal): histopathology findings at 15 mg/kg with sproradic episodes of loose stools/diarrhea
NOAEL at 42 day ([5]; cynomolgus monkey, in vivo, 42-day study, read-out: NOAEL (No Observed Adverse Effect Level)): 7.5 mg/kg
Toxicological findings, CD-1 Mice ([6]; 98 mg/kg for 42 days): Inhibition of Weight Gain at 98 mg/kg for 42 days
Gross pathology, CD-1 mice [6, 8]: no gross pathology with the exception of a reduction in the rate of weight gain
Histopathology findings, CD-1 mice [6, 8]: no histopathology findings
Ames Test, with and without microsomal activation [7]: No activity
Ames w/o Activation [7]: Not Active ^*
Ames with Activation [7]: Not Active ^*
LD50 at 6 day [4]: 256 mg/kg

CC(C)N=C(N)/N=C(\N)NOCCCOc1cc(Cl)c(Cl)cc1Cl.Cl [PS-15]
Activity in vivo against P. falciparum, greater than that of pyrimethamine (P. falciparum): 2 logs
